The values below come from US20030225029A1 (priority 2002, published 2003).

Counter-ions that a name gives are not always drawn. Like-named read-outs stand apart in the source and are kept apart here.

Data set [1] deals with deoxycytidine kinase (dCK) (Cricetulus griseus, UniProt G3I4C0). The note with it: phosphorylation to the monophosphate; partially purified enzyme from CHO cells; cited from earlier work.
Data set [2] deals with T1, human DNA polymerase a (Homo sapiens, UniProt P09884).
T1 sequence (P09884 1-1462): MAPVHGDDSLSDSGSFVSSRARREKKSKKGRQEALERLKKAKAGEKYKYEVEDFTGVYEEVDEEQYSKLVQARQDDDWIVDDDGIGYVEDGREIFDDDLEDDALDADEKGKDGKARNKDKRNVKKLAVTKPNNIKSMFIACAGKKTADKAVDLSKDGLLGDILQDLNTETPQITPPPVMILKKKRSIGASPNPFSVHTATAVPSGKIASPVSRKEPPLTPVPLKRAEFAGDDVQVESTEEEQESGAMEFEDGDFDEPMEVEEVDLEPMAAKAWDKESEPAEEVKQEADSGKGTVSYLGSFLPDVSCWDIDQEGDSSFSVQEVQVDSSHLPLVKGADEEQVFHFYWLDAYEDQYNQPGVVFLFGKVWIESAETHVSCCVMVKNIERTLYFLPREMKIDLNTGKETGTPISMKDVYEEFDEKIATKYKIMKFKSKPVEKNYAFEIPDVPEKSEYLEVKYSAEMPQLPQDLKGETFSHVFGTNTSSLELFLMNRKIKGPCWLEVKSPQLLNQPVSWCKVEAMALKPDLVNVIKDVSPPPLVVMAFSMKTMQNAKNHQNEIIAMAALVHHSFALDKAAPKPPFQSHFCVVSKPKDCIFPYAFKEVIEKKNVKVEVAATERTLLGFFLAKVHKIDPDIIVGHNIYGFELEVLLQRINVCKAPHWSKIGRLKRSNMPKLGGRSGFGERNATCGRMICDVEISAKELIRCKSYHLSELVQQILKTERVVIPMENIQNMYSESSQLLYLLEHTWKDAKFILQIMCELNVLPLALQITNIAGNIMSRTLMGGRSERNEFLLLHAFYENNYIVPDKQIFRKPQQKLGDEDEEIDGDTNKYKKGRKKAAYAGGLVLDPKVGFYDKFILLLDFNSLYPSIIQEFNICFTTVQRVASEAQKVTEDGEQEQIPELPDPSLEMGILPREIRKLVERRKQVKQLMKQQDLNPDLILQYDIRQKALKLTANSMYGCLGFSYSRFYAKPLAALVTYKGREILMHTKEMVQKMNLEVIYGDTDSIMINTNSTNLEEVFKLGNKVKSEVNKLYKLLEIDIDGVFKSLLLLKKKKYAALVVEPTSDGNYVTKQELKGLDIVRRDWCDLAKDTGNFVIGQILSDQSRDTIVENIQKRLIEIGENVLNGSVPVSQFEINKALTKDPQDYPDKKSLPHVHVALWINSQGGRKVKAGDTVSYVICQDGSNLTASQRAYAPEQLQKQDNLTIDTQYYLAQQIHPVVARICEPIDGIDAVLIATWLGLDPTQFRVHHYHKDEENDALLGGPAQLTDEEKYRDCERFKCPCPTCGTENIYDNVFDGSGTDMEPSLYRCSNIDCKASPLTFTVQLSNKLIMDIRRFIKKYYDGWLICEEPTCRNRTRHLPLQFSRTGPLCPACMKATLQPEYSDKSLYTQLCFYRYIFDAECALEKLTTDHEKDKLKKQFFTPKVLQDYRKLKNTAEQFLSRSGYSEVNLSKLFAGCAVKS
Particulars: dCTP over dFdCTP; cited from earlier work.

For data set [3], the target named is human DNA polymerase ε (Homo sapiens, UniProt Q07864). The note with it: dCTP over dFdCTP; cited from earlier work.
Chain of human DNA polymerase ε (Q07864 whole entry): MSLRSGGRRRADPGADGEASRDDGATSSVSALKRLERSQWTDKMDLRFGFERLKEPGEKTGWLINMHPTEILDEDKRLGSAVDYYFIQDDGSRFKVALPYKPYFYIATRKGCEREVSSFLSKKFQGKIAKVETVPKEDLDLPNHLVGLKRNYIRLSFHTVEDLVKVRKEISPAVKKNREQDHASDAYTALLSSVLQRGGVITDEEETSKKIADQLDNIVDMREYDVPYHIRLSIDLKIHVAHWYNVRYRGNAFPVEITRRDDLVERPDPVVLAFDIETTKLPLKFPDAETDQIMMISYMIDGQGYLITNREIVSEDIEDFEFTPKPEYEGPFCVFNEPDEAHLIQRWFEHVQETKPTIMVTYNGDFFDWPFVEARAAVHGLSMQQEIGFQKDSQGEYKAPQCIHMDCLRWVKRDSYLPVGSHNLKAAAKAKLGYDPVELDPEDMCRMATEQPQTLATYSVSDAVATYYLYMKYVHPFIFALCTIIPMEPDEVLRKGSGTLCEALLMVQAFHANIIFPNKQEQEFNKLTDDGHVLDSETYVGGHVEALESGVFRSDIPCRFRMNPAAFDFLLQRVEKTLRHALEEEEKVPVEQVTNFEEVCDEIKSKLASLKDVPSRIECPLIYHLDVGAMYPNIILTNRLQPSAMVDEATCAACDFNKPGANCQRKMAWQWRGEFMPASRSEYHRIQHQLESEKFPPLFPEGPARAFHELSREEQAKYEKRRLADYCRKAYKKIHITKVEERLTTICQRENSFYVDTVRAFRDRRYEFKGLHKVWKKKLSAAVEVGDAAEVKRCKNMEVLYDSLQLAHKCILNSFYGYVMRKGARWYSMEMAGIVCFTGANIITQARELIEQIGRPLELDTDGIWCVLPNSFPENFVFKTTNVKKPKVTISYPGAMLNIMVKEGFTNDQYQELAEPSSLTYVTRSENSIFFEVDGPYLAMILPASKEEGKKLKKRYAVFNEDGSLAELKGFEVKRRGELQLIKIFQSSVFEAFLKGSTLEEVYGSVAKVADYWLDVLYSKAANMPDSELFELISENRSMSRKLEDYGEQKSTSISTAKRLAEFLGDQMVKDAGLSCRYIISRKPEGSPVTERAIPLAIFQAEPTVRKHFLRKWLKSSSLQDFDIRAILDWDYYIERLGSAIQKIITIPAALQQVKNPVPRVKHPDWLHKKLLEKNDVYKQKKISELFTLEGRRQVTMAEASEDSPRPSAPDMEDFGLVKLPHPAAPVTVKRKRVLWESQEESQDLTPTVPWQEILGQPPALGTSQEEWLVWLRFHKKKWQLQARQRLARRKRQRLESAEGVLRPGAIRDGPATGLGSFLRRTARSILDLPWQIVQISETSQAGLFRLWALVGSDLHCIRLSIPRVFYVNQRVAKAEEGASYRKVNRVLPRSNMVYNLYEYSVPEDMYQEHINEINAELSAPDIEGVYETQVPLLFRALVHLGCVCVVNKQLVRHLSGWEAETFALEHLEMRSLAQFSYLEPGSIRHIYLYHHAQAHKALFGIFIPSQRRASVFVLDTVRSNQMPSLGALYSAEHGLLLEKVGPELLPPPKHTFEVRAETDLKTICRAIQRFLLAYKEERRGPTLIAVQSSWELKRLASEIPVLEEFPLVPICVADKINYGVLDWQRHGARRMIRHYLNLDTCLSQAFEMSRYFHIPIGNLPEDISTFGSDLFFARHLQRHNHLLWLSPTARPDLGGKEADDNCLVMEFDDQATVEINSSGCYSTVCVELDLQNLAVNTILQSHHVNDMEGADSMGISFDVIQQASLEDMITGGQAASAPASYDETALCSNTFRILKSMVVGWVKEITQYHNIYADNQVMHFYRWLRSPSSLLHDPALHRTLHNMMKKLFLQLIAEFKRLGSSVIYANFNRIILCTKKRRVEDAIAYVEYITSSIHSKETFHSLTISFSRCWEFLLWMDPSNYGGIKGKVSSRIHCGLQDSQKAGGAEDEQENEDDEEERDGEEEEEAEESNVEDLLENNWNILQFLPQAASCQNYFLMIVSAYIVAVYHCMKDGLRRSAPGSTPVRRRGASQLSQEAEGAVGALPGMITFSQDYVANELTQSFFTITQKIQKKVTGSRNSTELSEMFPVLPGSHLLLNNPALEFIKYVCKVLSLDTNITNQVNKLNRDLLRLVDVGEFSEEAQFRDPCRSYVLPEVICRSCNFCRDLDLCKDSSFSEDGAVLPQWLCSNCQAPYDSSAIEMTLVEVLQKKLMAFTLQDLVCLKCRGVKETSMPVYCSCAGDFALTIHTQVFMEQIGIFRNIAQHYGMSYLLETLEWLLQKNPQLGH
For data set [4], the system named is HCV. Briefly: Antiviral activity of gemcitabine after single treatment in an HCV-infected patient. It is filed as in vivo, Human. The source says:
Before the second dosage the baseline viral load was 6.49 log copies/mL. […] The HCV RNA measurement eight hours after the second dosage was 4.04 log copies/mL, indicating an approximate 2.5 log drop in eight hours.

Data set [5] concerns HIV-1. Particulars: cited from earlier work; for Impact of monotherapy: log decrease in HIV-1 RNA: for six months to one year.
Data set [6] deals with HIV-1. The note with it: T-cell lines; cited from earlier work.
For data set [7] the following is noted: in vivo; cited from earlier work.
The conditions of data set [8]: in vivo; cited from earlier work. This is another data set of the same source.
Data set [9] deals with HIV-1. The note with it: PBMC; cited from earlier work.
For data set [10] the following is noted: in vivo; cited from earlier work. The source holds these as a separate data set.
For data set [11], the system named is HCV replicon RNA. Briefly: HCV replicon system in Huh7 cells, Q-RT-PCR of replicon RNA. It is filed as cell-based. (In general: A replicon is a self-replicating genome or part of one, used to study replication in cells.)
Data set [12] deals with host DNA and RNA polymerases. The data set is described as follows: Reduction of cellular DNA (rDNA) or RNA (rRNA) levels in Huh7 replicon cells. It is filed as cell-based.
Data set [13] concerns locally advanced or metastatic NSCLC. The note with it: 28-day cycle, cited from earlier work; for objective response rate: first-line NSCLC.
Data set [14] relates to stage IIIB or Stage 1V NSCLC. Particulars: 21-day cycle, cited from earlier work.
The subject of data set [15] is friend leukemia virus. Particulars: under conditions that allowed normal weight gain; cited from earlier work.
The target of data set [16] is cytidine deaminase (Homo sapiens, UniProt P32320). Particulars: intracellular cytidine deaminase; cited from earlier work.
Chain of cytidine deaminase (P32320 whole entry, the tested form may be a part): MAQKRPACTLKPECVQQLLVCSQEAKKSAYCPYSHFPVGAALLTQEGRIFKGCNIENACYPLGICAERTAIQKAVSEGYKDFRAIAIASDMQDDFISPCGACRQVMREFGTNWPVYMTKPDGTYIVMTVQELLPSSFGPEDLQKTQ
The test system of data set [17] is locally advanced or metastatic pancreatic cancer. Particulars: 1000 mg/m^2 by 30 min infusion once weekly; 63 patients per arm; cited from earlier work.
Data set [18] relates to pancreatic cancer. Particulars: 63 patients previously treated with 5-FU; cited from earlier work.
For data set [19] the following is noted: human, in vivo; cited from earlier work.
The conditions of data set [20]: cited from earlier work.
For data set [21] the following is noted: human, in vivo; cited from earlier work. The source holds these as a separate data set.

Chain of deoxycytidine kinase (dCK) (G3I4C0 entry or part of it): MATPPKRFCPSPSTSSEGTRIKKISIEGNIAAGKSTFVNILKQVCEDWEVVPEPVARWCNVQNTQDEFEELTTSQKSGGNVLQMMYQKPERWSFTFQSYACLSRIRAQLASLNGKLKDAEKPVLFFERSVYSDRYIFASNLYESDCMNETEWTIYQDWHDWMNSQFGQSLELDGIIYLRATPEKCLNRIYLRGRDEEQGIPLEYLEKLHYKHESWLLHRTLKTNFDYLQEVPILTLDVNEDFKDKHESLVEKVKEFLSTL

Consider `Nc1ccn([C@H]2C[C@H](O)[C@@H](CO)O2)c(=O)n1` [deoxycytidine], for which the Km (commonly the substrate concentration at which the rate is half of its maximum) in data set [1] is 1.6 µM.
As for `Nc1ccn([C@@H]2O[C@H](COP(=O)(O)OP(=O)(O)OP(=O)(O)O)[C@@H](O)C2(F)F)c(=O)n1` [dFdCTP], the “preference of the polymerase for the normal nucleotide (dCTP)” value in [2] and in data set [3] was 20 fold throughout.
`Nc1ccn([C@@H]2O[C@H](CO)[C@@H](O)C2(F)F)c(=O)n1` [gemcitabine HCl]: the tolerance result in [4] (1200 mg in 1000 minutes associated with oxaliplatine) is listed as “acceptable”.
Turning to Abacavir, the “Impact of monotherapy: log reduction in HIV-1 RNA” value in [5] (at four weeks) is “Approximate 1.8 log reduction in HIV-1 RNA at four weeks”. Further, in [6], the EC50 (as a rule, the midpoint of the concentration-response curve) is 4.1 µM. Besides, the Adverse events result in data set [7] is “Nausea, vomiting, headache, (hypersensi- tivity reaction)”. In data set [8], the “Parent drug plasma-serum half-life” value is 1.0 to 2.0 h.
For `Nc1ccn([C@H]2CC[C@@H](CO)O2)c(=O)n1` [Zalcitabine, 2′,3′-dideoxycytidine], the “Impact of monotherapy (comparison in words)” value in [5] (in vivo) is “Less effective than either ddI or AZT”. Also, the EC50 in data set [9] was 0.002 to 0.16 µM; in [6], 0.03 to 0.05 µM. The Adverse events entry in data set [7] is recorded as “Peripheral neuropathy, mouth ulcers”. Also, the “Parent drug plasma-serum half-life” value in data set [8] is 1.0 to 3.0 h.
For `Cc1cn([C@H]2CC(N=[N+]=[N-])[C@@H](CO)O2)c(=O)[nH]c1=O` (stereo partly shown) [Zidovudine, 1-(3′Azido-2′-deoxyribosyl)thymine], the “Impact of monotherapy: log decrease in HIV-1 RNA” value in [5] is “One log decrease in HIV-1 RNA for six months to one year 1”. Besides, the half-maximal effective concentration (EC50) in data set [9] is 0.004 to 0.025 µM; in data set [6] it was 0.005 to 0.006 µM. The Adverse events result in data set [7] is “Nausea, vomiting, headache, neutropenia, anemia, insomnia”. The “Parent drug plasma-serum half-life” value in [8] was 0.8 to 1.9 h.
Take `O=c1[nH]cnc2c1ncn2[C@H]1CC[C@@H](CO)O1` [Didanosine, 2′,3′-dideoxyinosine]: in data set [5], the “Impact of monotherapy: log decrease in HIV-1 RNA” value is on record as “˜0.8 log decrease in HIV-1 RNA for six months to one year”. The concentration giving a half-maximal response (EC50) in data set [9] was 0.01 µM; in data set [6], 0.002 to 0.02 µM. The Adverse events result in [7] is recorded as “Diarrhea, nausea, vomiting, peripheral neuropathy, pancreatitis”. For the same molecule, the “Parent drug plasma-serum half-life” value in [8] is 0.6 to 2.7 h.
With `NC(=O)c1ncn([C@@H]2O[C@H](CO)[C@@H](O)[C@H]2O)n1` [Ribavirin], the teratogenicity entry in data set [10] was “teratogenic”.
As for `Cc1cn([C@H]2C=C[C@@H](CO)O2)c(=O)[nH]c1=O` [Stavudine, 3′-deoxy-2′,3′-didehycrothymidine], in data set [5], the “Impact of monotherapy: log decrease in HIV-1 RNA” value is given as “˜0.8 log decrease in HIV-1 RNA for six months to one year”. The concentration giving a half-maximal response (EC50) in data set [9] was 0.009 µM; in data set [6] it was 0.001 to 25 µM. Also, in [7], the Adverse events entry is recorded as “Peripheral neuropathy”. Moreover, the “Parent drug plasma-serum half-life” value in [8] was 1.0 to 1.6 h.
With `O=c1ccn([C@@H]2O[C@H](CO)[C@@H](O)C2(F)F)c(=O)[nH]1` [dFdU, 2′,2′-difluorodeoxyuridine], in data set [11] (7.0 μM), the “dCT HCV” value is 6.39. The ddct in data set [11] (7.0 μM, HCV dCt minus rRNA dCt) stood at 4.42. In addition, the “dCt rRNA” value in data set [12] (7.0 μM) worked out at 1.96.
On to gemcitabine plus cisplatin, for which, in [13], the objective response rate was 26%; the “Median survival time and median time to disease progression compared to cisplatin alone” value is recorded as “significantly greater”. Also, the “median time to disease progression and objective response rates compared to etoposide plus cisplatin” value in data set [14] was “significantly greater”. For the same molecule, the “survival, difference between the two treatment arms” value in data set [14] (vs etoposide plus cisplatin) was “no significant difference”.
Take `N.N.[Cl][Pt][Cl]` [cisplatin]: the objective response rate in [13] is recorded as 10%.
In the case of `Nc1ccn([C@@H]2O[C@H](CO)[C@@H](O)C2(F)F)c(=O)n1` [cytidine analog], in data set [15], the inhibition of polyerythroblastosis is on record as 90% and the “inhibition of spleen enlargement” value was 90%.
With `Nc1nc(=O)n([C@@H]2CS[C@H](CO)O2)cc1F` [Emtricitabine], in data set [5] (at 14 days), the “Impact of monotherapy: log reduction” value was “˜2 log reduction at 14 days”. In addition, the EC50 in data set [9] is 0.0007 to 0.01 µM; in data set [6], 0.009 to 0.5 µM. Besides, the Adverse events entry in data set [7] was “Anemia”. The “Parent drug plasma-serum half-life” value in data set [8] is 1.0 to 4.0 h.
On to `Nc1ccn([C@@H]2O[C@H](CO)[C@@H](O)C2(F)F)c(=O)n1` [Gemcitabine, β-D-2′,2′-difluorocytidine], for which the “reduction of the replicon HCV RNA (FIG. 2)” value in [11] (4-days incubation) is given as “dose-dependant reduction”. The 90% effect concentration (EC90) (usually the concentration needed for an effect of 90%) in data set [11] (Hepatitis C virus, Huh-7, 96 h, Huh7 cells, 4-days incubation, read-out: EC90 (1-log reduction of replicon RNA) (converted)) was about 0.07 µM. For the same molecule, the EC50 in [11] (Hepatitis C virus, Huh-7, Huh7 cells harboring self-replicating HCV RNA, read-out: EC50, reduction of HCV RNA levels) amounted to 0.04 µM. For the same molecule, the concentration for half-maximal inhibition (IC50) (as a rule, the concentration that inhibits the measured activity by half) in data set [12] (Homo sapiens, Huh-7) came to 0.24 µM. In data set [4] (before the second dosage, day after first 1200 mg dose), this molecule gave a baseline viral load of 6.49 log copies/mL. Also, in data set [4] (eight hours after the second dosage (approximately 700 mg)), the “HCV RNA measurement” value is 4.04 log copies/mL. For the same molecule, the “drop in HCV RNA” value in [4] (in eight hours after the second dosage) is recorded as about 2.5 log. Moreover, the Michaelis-Menten constant (Km) in data set [16] was 96 µM. Besides, the “clinical benefit response, survival, and time to disease progression compared to 5-FU” value in data set [17] is “statistically significant increases”. In [18], the “clinical benefit response rate” value was 27% and the median survival is 3.9 months. In data set [1], the Michaelis constant (Km) is 3.6 µM. Besides, the plasma protein binding result in data set [19] was “negligible”. Moreover, the half-life (as a rule, the time in which the quantity being followed falls by half) in [20] (after short infusion (<70 min)) is 0.533 to 1.53 h. In data set [20] (human, in vivo), the Volume of distribution is recorded as 370 L/m^2. Also, in data set [21], the “ADVERSE EFFECTS” value is “Thrombocytopenia,” and the dose-limiting toxicity result is listed as “myelosuppression”.
